Assay results: patent US20060049177A1, “Induction heating cooker” (LG Electronics Inc., priority 2004, published 2006)
Read-outs that look alike come from different tables or passages of the source.

Columns and labels:
HIV-1 = assay: in vitro anti-HIV assay: inhibition of HIV-induced cytopathic effect in MT-4 cells (MTT); assay type: cell-based; conditions: for SI: selectivity index = ratio of CC50 to IC50
Procedure: (§1) A rapid, sensitive and automated assay procedure was used for the in vitro evaluation of anti-HIV agents. An […] T4-cell line, MT-4, which was previously shown (Koyanagi et al., Int. J. Cancer, 36, 445-451, 1985) to be highly susceptible to and permissive for HIV infection, served as the target cell line. Inhibition of the HIV-induced cytopathic effect was used as the end point. The viability of both HIV- and mock-infected cells was assessed spectrophotometrically via the in situ reduction of 3-(4,5-dimethylthiazol-2-yl)-2,5-diphenyltetrazolium bromide (MTT). The 50% […], cytotoxic concentration (CC50 in μM) was defined as the concentration of compound that reduced the absorbance of the mock-infected control sample by 50%. The percent protection achieved by the compound in HIV-infected cells was calculated by the following formula: [formula]
(§2) whereby (ODT)HIV is the optical density measured with a given concentration of the test compound in HIV-infected cells; (ODC)HIV is the optical density measured for the control untreated HIV-infected cells; (ODC)MOCK is the optical density measured for the control untreated mock-infected cells; all optical density values were determined at 540 nm. The dose achieving 50% protection according to the above formula was defined as the 50% inhibitory concentration (IC50 in μM). The ratio of CC50 to IC50 was defined as the selectivity index (SI).

MT-4 cells = assay: cytotoxicity in mock-infected MT-4 cells (MTT)
Procedure: as §1, §2

[1] = Human immunodeficiency virus 1, MT4, HIV-infected MT-4 cells, dose achieving 50% protection against cytopathic effect, MTT, OD 540 nm, mean value, read-out: IC50
[2] = HIV-infected MT-4 cells, dose achieving 50% protection against cytopathic effect, MTT, OD 540 nm, mean value, read-out: IC50

Row | Compound | IC50 (HIV-1; [1]) [nM] | SI (HIV-1) | CC50 (MT-4 cells) [nM] | IC50 (HIV-1; [2]) [nM] | IC50 (HIV-1; Human immunodeficiency virus 1, MT4) [nM]
1 | N#Cc1ccc(Nc2nc(Cc3c(Cl)cccc3Cl)nc(NO)n2)cc1 [Compound 33, 4-[[4-[(2,6-dichlorophenyl)methyl]-6-(hydroxyamino)-1,3,5-triazin-2-yl]amino]benzonitrile] | 2 | 6272 | – | – | –
2 | N#Cc1ccc(Nc2nc(N)nc(Cc3cc(C(F)(F)F)ccc3C(F)(F)F)n2)cc1 [Compound 56] | – | – | > 100000 | > 74400 | –
3 | (±)-2-[[4-[(4-cyanophenyl)amino]-6-[(2,6-dichlorophenyl)amino]-6-[(2,6-dichloro-phenyl)methyl]-1,3,5-triazin-2-yl]amino-4-hydroxybutanamide [Compound 34] | – | 746 | 42300 | 57 | –
4 | N#Cc1cccc(Nc2nc(N)nc(Cc3c(Cl)cccc3Cl)n2)c1 [Compound 4] | – | 224 | 53600 | 240 | –
5 | N#Cc1ccc(Nc2nc(Cc3c(Cl)cccc3Cl)nc(NC(=N)N)n2)cc1 [Compound 20, N-[4-[(4-cyanophenyl)amino]-6-[(2,6-dichlorophenyl)methyl]-1,3,5-triazin-2-yl]-guanidine] | > 100000 | <1 | – | – | –
6 | Cc1ccc(C)c(Cc2nc(N)nc(Nc3ccc(C#N)cc3)n2)c1 [Compound 49] | – | >220 | > 20000 | 91 | –
7 | CC(=O)Nc1nc(Cc2c(Cl)cccc2Cl)nc(N(C(C)=O)c2ccc(C#N)cc2)n1 [Compound 40] | – | >41666 | > 100000 | 2 | –
8 | N#Cc1ccc(Nc2nc(Cc3c(Cl)cccc3Cl)nc(NCCCCO)n2)cc1 [Compound 24] | – | 529 | 36100 | 68 | –
9 | N#Cc1ccc(Nc2nc(N)nc(Cc3ccccc3Cl)n2)cc1 [Compound 3] | – | 3972 | 51600 | 13 | –
10 | N#Cc1ccc(Nc2nc(Cc3c(Cl)cccc3Cl)nc(Nc3ccc(C#N)cc3)n2)cc1 [Compound 11, N,N′-[6-[(2,6-dichlorophenyl)methyl]1,3,5-triazin-2,4-diyl]bis[4-aminobenzonitrile]] | – | <1 | 6000 | > 10400 | –
11 | CN(C)C=Nc1nc(Cc2c(Cl)cccc2Cl)nc(Nc2ccc(C#N)cc2)n1 [Compound 62, 4-[[4-[(2,6-dichlorophenyl)methyl]-6-[[(dimethylamino)methylene]amino]-1,3,5-triazin-2-yl]amino]benzonitrile] | 2 | >41666 | – | – | –
12 | Nc1nc(Cc2c(Cl)cccc2Cl)nc(Nc2ccc(Cl)cc2)n1 [Compound 5] | – | 2793 | 47500 | 17 | –
13 | CN(C)c1nc(Cc2c(Cl)cccc2Cl)nc(Nc2ccc(C#N)cc2)n1 [Compound 10] | – | >602 | > 100000 | 170 | –
14 | N#Cc1ccc(Nc2nc(Cc3c(Cl)cccc3Cl)nc(NCCCO)n2)cc1 [Compound 25] | – | 1773 | 51600 | 29 | –
15 | CCOC(=O)N(C(=O)OCC)c1nc(Cc2c(Cl)cccc2Cl)nc(N(C(=O)OCC)c2ccc(C#N)cc2)n1 [Compound 41] | – | 3125 | 40200 | 13 | –
16 | N#Cc1ccc(Nc2nc(Cc3c(Cl)cccc3Cl)nc(NCCO)n2)cc1 [Compound 18] | – | >2030 | > 20000 | 1 | –
17 | COc1ccc(Br)cc1Cc1nc(N)nc(Nc2ccc(C#N)cc2)n1 [Compound 55] | – | >384 | > 20000 | 52 | –
18 | N#Cc1ccc(Nc2nc(Cc3c(Cl)cccc3Cl)nc(NCC(N)=O)n2)cc1 [Compound 14, [N-[4-[(4-cyano-phenyl)amino]-6-[(2,6-dichlorophenyl)methyl]-1,3,5-triazin-2-yl]]aminoacetamide] | 31 | 293 | – | – | –
19 | N#Cc1ccc(Nc2nc(Cc3c(Cl)cccc3Cl)nc(NN)n2)cc1 [Compound 15, 4-[[4-[(2,6-dichlorophenyl)methyl]-6-hydrazino-1,3,5-triazin-2yl]amino]benzonitrile] | 61 | 732 | – | – | –
20 | N#Cc1ccc(Nc2nc(N)nc(Cc3c(Cl)ccc4[nH]ccc34)n2)cc1 [Compound 8, 4-[[4-amino-6-[(5-chloro-1H-indol-4-yl)methyl]-1,3,5-triazin-2-yl]amino]benzonitrile] | – | 4806 | – | – | 300
21 | N#Cc1ccc(Nc2nc(N)nc(Cc3c(F)ccc(F)c3F)n2)cc1 [Compound 52] | – | >220 | – | 3 | –
22 | N#Cc1ccc(Nc2nc(Cc3c(Cl)cccc3Cl)nc(NCC(=O)O)n2)cc1 [Compound 16, N-[4-[(4-cyanophenyl)-amino]-6-[(2,6-dichlorophenyl)methyl]-1,3,5-triazin-2-yl]glycine] | 2800 | 28 | – | – | –
